Read-outs that look alike come from different tables or passages of the source.
Experiments:
[1] = tested on: MB 5393 (COL), a methicillin-resistant S. aureus strain; test: Determination of minimum and synergistic inhibitory concentration; type: cell-based; conditions: for SIC: presence of imipenem (4 μg/mL); for MIC: Staphylococcus aureus
Protocol: MB 5393 (COL), a methicillin-resistant S. aureus strain, was inoculated into Trypticase Soy Broth (TSB, BBL) and grown in a humidified incubator for 18 hours with rotary shaking at 220 rpm and kept on ice until used.
A quantity of imipenem (Merck Chemical Collection) was weighed out and dissolved into sterile 10 mM MOPS buffer at pH 7. This solution was diluted to 1600 μg/mL, 200 μg/mL, and 25 μg/mL and filter-sterilized through a 0.45 μm filter. From these solutions, seven 1:2 serial dilutions were prepared using sterile 10 mM MOPS buffer at pH 7. The final concentration ranges tested were 128 to 2 μg/mL, 16 to […], and 2 to 0.03 μg/mL. The solutions were kept refrigerated until used.
Test compounds (EXAMPLES 1-67) were prepared in sterile water or DMSO at a concentration of 3.2 mg/mL. From this solution, 11 serial 1:2 dilutions were prepared using sterile water. The final concentration range tested was 64 to 0.0313 μg/mL. The solutions were kept refrigerated until used.
Two-fold serial dilutions of test compounds were tested in the presence and absence of subinhibitory concentrations of imipenem (4 μg/mL) in 96-well U bottom microliter dishes in microbiological growth media. The plates were inoculated with bacterial cells to a final concentration of ˜5×10^5 CFU/mL. Test plates were incubated stationery at 37° C. for 22-24 hours.
After 22 hours of incubation, the Minimum inhibitory concentrations (MICs) were determined, defined as the lowest concentration of antibiotic that prevented all visible growth in the absence of imipenem. Synergistic inhibitory concentrations (SICs) were determined, defined as the lowest concentration of antibiotic that prevented all visible growth in the presence of imipenen.

SpsB = molecular target: T1, SpsB (Staphylococcus aureus, UniProt P0A070); test: Inhibition of SpsB enzyme activity (fluorescence-based assay, bacterial membrane fraction); type: biochemical
T1 construct: using a bacterial membrane fraction as a source of SpsB; from tissue
T1 sequence (P0A070 1-191): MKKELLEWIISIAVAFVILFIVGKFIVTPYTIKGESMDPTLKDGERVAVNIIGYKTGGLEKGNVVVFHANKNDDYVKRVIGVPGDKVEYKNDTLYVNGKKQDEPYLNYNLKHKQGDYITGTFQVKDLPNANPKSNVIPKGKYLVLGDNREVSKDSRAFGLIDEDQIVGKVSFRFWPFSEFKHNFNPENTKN
Protocol: Signal peptidase enzyme activity was measured in a fluorescence-based assay using a bacterial membrane fraction as a source of SpsB (See Bruton et al., 2003, Eur J Med Chem 38:351-356). The SpsB substrate is a synthetic lipopeptide, decanoyl-K(DABCYL)-TPTAKA↓ASKKD-D(EDANS)—NH2 (prepared by JPT Peptide Technologies, Berlin, Germany). Assays were performed with 20 μM peptide substrate (Km≈5 μM) and reactions were initiated with enzyme addition (final protein concentration of 0.6 mg/mL). SpsB mediated cleavage of the peptide substrate was detected as an increase in fluorescence (excitation 340 nm/emission 460 nm).

[2] = MRSA COL, absence of imipenem, 22 hours, read-out: MIC

`CCCc1ccc(-c2ccc(C(=O)NCCC(=O)NC(CCCCN)C(=O)N(C)[C@@H]3C(=O)N[C@@H](C)C(=O)N[C@H](C(N)=O)Cc4ccc(O)c(c4)-c4cc3ccc4O)cc2)cc1.O=C(O)C(F)(F)F` (stereo partly drawn) [EXAMPLE 6] was tested, and the SIC ([1]; MRSA COL, 22 hours) was “H (H: SIC 0.062-1)” and the MIC ([1]; MRSA, 22 h) was under 1 µg/mL.

For `CCCCCc1ccc(-c2ccc(C(=O)NCCC(=O)N[C@@H](CCCCN)C(=O)N(C)[C@@H]3C(=O)N[C@@H](C)C(=O)N[C@H](C(=O)O)Cc4ccc(O)c(c4)-c4cc3ccc4O)cc2)cc1` [EXAMPLE 35], the IC50 (SpsB) was under 10 nM, the SIC ([1]; MRSA COL, 22 hours) was “G (G: SIC <0.0625)” and the MIC ([1]; MRSA, 22 h) was under 1 µg/mL.

For `CCCCCCCCCCc1ccc2cc(C(=O)NCCC(=O)N[C@@H](CCCCNC(C)=O)C(=O)N(C)[C@@H]3C(=O)N[C@@H](C)C(=O)N[C@H](C(=O)O)Cc4ccc(O)c(c4)-c4cc3ccc4O)ccc2c1` [EXAMPLE 33], the IC50 (SpsB) was under 10 nM, the SIC ([1]; MRSA COL, 22 hours) was “G (G: SIC <0.0625)” and the MIC [1, 2] was over 8 µg/mL.

`CCCc1ccc(-c2ccc(C(=O)NCCC(=O)N[C@@H](CCCNC(=N)N)C(=O)N(C)[C@@H]3C(=O)N[C@@H](C)C(=O)N[C@H](C(=O)O)Cc4ccc(O)c(c4)-c4cc3ccc4O)cc2)cc1.O=C(O)C(F)(F)F` [EXAMPLE 8, ({(4S)-5-[[(7S,10S,13S)-13-carboxy-3,18-dihydroxy-10-methyl-8,11-dioxo-9,12-diazatricyclo[13.3.1.1^2,6]icosa-1(19),2(20),3,5,15,17-hexaen-7-yl](methyl)amino]-5-oxo-4-[(3-{[(4′-propylbiphenyl-4-yl)carbonyl]amino}propanoyl)amino]pentyl}amino)(imino)methanaminium trifluoroacetate] was tested, and the IC50 (SpsB) was 10 to 50 nM, the SIC ([1]; MRSA COL, 22 hours) was “H (H: SIC 0.062-1)” and the MIC [1, 2] was 1 to 8 µg/mL.

`CCCCCCCCCc1ccc(-c2cnc(C(=O)NCCC(=O)N[C@@H](CCCCN)C(=O)N(C)[C@@H]3C(=O)N[C@@H](C)C(=O)N[C@H](C(=O)O)Cc4ccc(O)c(c4)-c4cc3ccc4O)nc2)cc1` [EXAMPLE 63] was tested, and the IC50 (SpsB) was 10 to 50 nM, the SIC ([1]; MRSA COL, 22 hours) was “G (G: SIC <0.0625)” and the MIC ([1]; MRSA, 22 h) was under 1 µg/mL.

In the case of `CCCCCCCCCc1ccc(-c2ccc(C(=O)NCCC(=O)N[C@@H](CCCCN)C(=O)N(C)[C@@H]3C(=O)N[C@@H](C)C(=O)N[C@H](C(=O)O)Cc4ccc(O)c(c4)-c4cc3ccc4O)nc2)cc1` [EXAMPLE 32], the IC50 (SpsB) is reported as under 10 nM, the SIC ([1]; MRSA COL, 22 hours) is reported as “G (G: SIC <0.0625)” and the MIC ([1]; MRSA, 22 h) is reported as under 1 µg/mL.

`C[C@@H]1NC(=O)[C@@H](N(C)C(=O)[C@H](CCCCN)NC(=O)CCNC(=O)c2ccc(-c3ccc(C4C5CC6CC(C5)CC4C6)cc3)cc2)c2ccc(O)c(c2)-c2cc(ccc2O)C[C@@H](C(=O)O)NC1=O` (stereo partly drawn) [EXAMPLE 21] was tested, and the IC50 (SpsB) was under 10 nM, the SIC ([1]; MRSA COL, 22 hours) was “G (G: SIC <0.0625)” and the MIC ([1]; MRSA, 22 h) was under 1 µg/mL.

`CCCCCCCCCc1ccc(-c2ccc(C(=O)NCCC(=O)N3CC[C@H]3C(=O)N(C)[C@@H]3C(=O)N[C@@H](C)C(=O)N[C@H](C(=O)O)Cc4ccc(O)c(c4)-c4cc3ccc4O)cc2)cc1` [EXAMPLE 19, (8S,11S,14S)-3,18-dihydroxy-11-methyl-14-(methyl{[(2)-1-(3-{[(4′-nonylbiphenyl-4-yl)carbonyl]amino}propanoyl)azetidin-2-yl]carbonyl}amino)-10,13-dioxo-9,12-diazatricyclo[13.3.1.1^2,6]icosa-1(19),2(20),3,5,15,17-hexaene-8-carboxylic acid] was tested, and the IC50 (SpsB) was under 10 nM, the SIC ([1]; MRSA COL, 22 hours) was “G (G: SIC <0.0625)” and the MIC [1, 2] was 1 to 8 µg/mL.

With `CCCc1ccc(-c2ccc(C(=O)NCCC(=O)NC(CCCCN)C(=O)N(C)[C@@H]3C(=O)N[C@@H](C)C(=O)N[C@H](C(=O)O)Cc4ccc(O)c(c4)-c4cc3ccc4O)cc2)cc1.O=C(O)C(F)(F)F` (stereo partly drawn) [EXAMPLE 2, 5-(R,S)-6-[[(7S,10S,3S)-13-carboxy-3,18-dihydroxy-10-methyl-8,11-dioxo-9,12-diazatricyclo[13.3.1.1^2,6]icosa-1(19),2(20),3,5,15,17-hexaen-7-yl](methyl)amino]-6-oxo-5-[(3-{[(4′-propylbiphenyl-4-yl)carbonyl]amino}propanoyl)amino]hexan-1-aminium trifluoroacetate] the IC50 (SpsB) was 10 to 50 nM, the SIC ([1]; MRSA COL, 22 hours) was “H (H: SIC 0.062-1)” and the MIC [1, 2] was 1 to 8 µg/mL.

For `CCCCCCCCCc1ccc(-c2ccc(C(=O)NCCC(=O)N3C[C@@H](N)C[C@H]3C(=O)N(C)[C@@H]3C(=O)N[C@@H](C)C(=O)N[C@H](C(=O)O)Cc4ccc(O)c(c4)-c4cc3ccc4O)cc2)cc1` [EXAMPLE 44], the IC50 (SpsB) was under 10 nM, the SIC ([1]; MRSA COL, 22 hours) was “G (G: SIC <0.0625)” and the MIC ([1]; MRSA, 22 h) was under 1 µg/mL.

With `CCCCCCCCCc1ccc(-c2ccc(C(=O)NCCC(=O)N[C@@H](CCCCO)C(=O)N(C)[C@@H]3C(=O)N[C@@H](C)C(=O)N[C@H](C(=O)O)Cc4ccc(O)c(c4)-c4cc3ccc4O)cc2)cc1` [EXAMPLE 50] the IC50 (SpsB) was under 10 nM, the SIC ([1]; MRSA COL, 22 hours) was “H (H: SIC 0.062-1)” and the MIC [1, 2] was over 8 µg/mL.

With `CCC[C@H]1CC[C@H](c2ccc(-c3ccc(C(=O)NCCC(=O)N[C@@H](CCCCN)C(=O)N(C)[C@@H]4C(=O)N[C@@H](C)C(=O)N[C@H](C(=O)O)Cc5ccc(O)c(c5)-c5cc4ccc5O)cc3)cc2)CC1` [EXAMPLE 46] the IC50 (SpsB) was under 10 nM, the SIC ([1]; MRSA COL, 22 hours) was “G (G: SIC <0.0625)” and the MIC ([1]; MRSA, 22 h) was under 1 µg/mL.

With `CCCc1ccc(-c2ccc(C(=O)NCCC(=O)N3CCC[C@@H]3C(=O)N(C)[C@@H]3C(=O)N[C@@H](C)C(=O)N[C@H](C(=O)O)Cc4ccc(OC)c(c4)-c4cc3ccc4OC)cc2)cc1` [EXAMPLE 13, (8S,11S,14S)-3,18-dimethoxy-11-methyl-14-(methyl{[(2R)-1-(3-{[(4′-propylbiphenyl-4-yl)carbonyl]amino}propanoyl)pyrrolidin-2-yl]carbonyl}amino)-10,13-dioxo-9,12-diazatricyclo[13.3.1.1^2,6]icosa-1(19),2(20),3,5,15,17-hexaene-8-carboxylic acid] the IC50 (SpsB) was over 50 nM, the SIC ([1]; MRSA COL, 22 hours) was “I (I: SIC >1)” and the MIC [1, 2] was over 8 µg/mL.

With `C[C@@H]1NC(=O)[C@@H](N(C)C(=O)[C@H](CCCCN)NC(=O)CCNC(=O)c2ccc(CCCCCCCCc3ccccc3)cc2)c2ccc(O)c(c2)-c2cc(ccc2O)C[C@@H](C(=O)O)NC1=O.O=C(O)C(F)(F)F` [EXAMPLE 15, (5S)-6-[[(7S,10S,13S)-13-carboxy-3,18-dihydroxy-10-methyl-8,11-dioxo-9,12-diazatricyclo[13.3.1.12,6]icosa-1(19),2(20),3,5,15,17-hexaen-7-yl](methyl)amino]-6-oxo-5-[(3-{[4-(8-phenyloctyl)benzoyl]amino}propanoyl)amino]hexan-1-aminium] the IC50 (SpsB) was under 10 nM, the SIC ([1]; MRSA COL, 22 hours) was “G (G: SIC <0.0625)” and the MIC [1, 2] was under 1 µg/mL.

`C[C@@H]1NC(=O)[C@@H](N(C)C(=O)[C@H](CCCCN)NC(=O)CCNC(=O)c2ccc(-c3ccc(C4CCCCC4)cc3)cc2)c2ccc(O)c(c2)-c2cc(ccc2O)C[C@@H](C(=O)O)NC1=O` [EXAMPLE 49] was tested, and the IC50 (SpsB) was under 10 nM, the SIC ([1]; MRSA COL, 22 hours) was “G (G: SIC <0.0625)” and the MIC ([1]; MRSA, 22 h) was under 1 µg/mL.

For `CCCCCCCCCc1ccc(-c2ccc(C(=O)NCCC(=O)N[C@@H](CCCCN)C(=O)N(C)[C@@H]3C(=O)N[C@@H](C)C(=O)N[C@H](C(=O)O)Cc4ccc(O)c(c4)-c4cc3ccc4O)c3ccccc23)cc1` [EXAMPLE 52], the IC50 (SpsB) was under 10 nM, the SIC ([1]; MRSA COL, 22 hours) was “G (G: SIC <0.0625)” and the MIC ([1]; MRSA, 22 h) was 1 to 8 µg/mL.

With `CCCc1ccc(-c2ccc(C(=O)NCCC(=O)N[C@@H](CCCN)C(=O)N(C)[C@@H]3C(=O)N[C@@H](C)C(=O)N[C@H](C(=O)O)Cc4ccc(O)c(c4)-c4cc3ccc4O)cc2)cc1` [EXAMPLE 55] the IC50 (SpsB) was under 10 nM, the SIC ([1]; MRSA COL, 22 hours) was “H (H: SIC 0.062-1)” and the MIC ([1]; MRSA, 22 h) was under 1 µg/mL.

For `CC(c1ccc(-c2ccc(C(=O)NCCC(=O)N[C@@H](CCCCN)C(=O)N(C)[C@@H]3C(=O)N[C@@H](C)C(=O)N[C@H](C(=O)O)Cc4ccc(O)c(c4)-c4cc3ccc4O)cc2)cc1)C12CC3CC(CC(C3)C1)C2` (stereo partly drawn) [EXAMPLE 22], the IC50 (SpsB) was under 10 nM, the SIC ([1]; MRSA COL, 22 hours) was “G (G: SIC <0.0625)” and the MIC ([1]; MRSA, 22 h) was under 1 µg/mL.

`CCCCCCCCCc1ccc(-c2ccc3sc(C(=O)NCCC(=O)N[C@@H](CCCCN)C(=O)N(C)[C@@H]4C(=O)N[C@@H](C)C(=O)N[C@H](C(=O)O)Cc5ccc(O)c(c5)-c5cc4ccc5O)cc3c2)cc1` [EXAMPLE 45] was tested, and the IC50 (SpsB) was under 10 nM, the SIC ([1]; MRSA COL, 22 hours) was “G (G: SIC <0.0625)” and the MIC ([1]; MRSA, 22 h) was 1 to 8 µg/mL.

Work on `CCCc1ccc(-c2ccc(C(=O)NCCC(=O)NC(CCCCN)C(=O)N(C)[C@@H]3C(=O)N[C@@H](C)C(=O)N[C@H](C(N)=O)Cc4ccc(O)c(c4)-c4cc3ccc4O)cc2)cc1.O=C(O)C(F)(F)F` (stereo partly drawn) [EXAMPLE 6, trifluoroacetate] yielded an IC50 (SpsB) of 10 to 50 nM.

— patent publication US20130244929A1 (priority 2010, published 2013)
